BigSolDB 2.1

O=P(Oc1ccccc1)(Oc1ccccc1)N1CCN(P(=O)(Oc2ccccc2)Oc2ccccc2)CC1
in dichloromethane
Conditions	solubility (mole fraction)
283.15 K	0.00567
288.15 K	0.00642
293.15 K	0.00731
298.15 K	0.00843
303.15 K	0.0103
308.15 K	0.0133

COc1ccc([C@@H]2CC(=O)c3c(O)cc(O[C@@H]4O[C@H](CO[C@@H]5O[C@@H](C)[C@H](O)[C@@H](O)[C@H]5O)[C@@H](O)[C@H](O)[C@H]4O)cc3O2)cc1O
in n-propanol
Conditions	solubility (mole fraction)
293.15 K	0.000142
298.15 K	0.000166
303.15 K	0.00019
308.15 K	0.000218
313.15 K	0.000252
318.15 K	0.000289
323.15 K	0.000329
328.15 K	0.000375
333.15 K	0.000425

Cc1nc2n(c(=O)c1CCN1CCC(c3noc4cc(F)ccc34)CC1)CCCC2
in water
Conditions	solubility (mole fraction)
298.15 K	1e-07
303.15 K	1e-07
308.15 K	2e-07
313.15 K	2e-07
318.15 K	3e-07
323.15 K	4e-07
328.15 K	5e-07
333.15 K	6e-07

CCCCC
in water
Conditions	solubility (mole fraction)
286.65 K	1.1e-05
295.45 K	1.03e-05

C[C@@H](O)[C@H]1C(=O)N2C(C(=O)O)=C(S[C@@H]3CN[C@H](C(=O)N(C)C)C3)[C@H](C)[C@H]12.O.O.O
in water
Conditions	solubility (mole fraction)
278.15 K	0.000408
283.15 K	0.000445
288.15 K	0.00051
293.15 K	0.000556
298.15 K	0.00066
303.15 K	0.000782

C=C1CC[C@H](O)C/C1=C/C=C1\CCC[C@]2(C)[C@@H]([C@H](C)CCCC(C)C)CC[C@@H]12
in water
Conditions	solubility (mole fraction)
273.2 K	1.97e-07
278.2 K	2.95e-07
283.2 K	4.38e-07
288.2 K	5.71e-07
298.2 K	1.06e-06

COc1cc(/C=C/C(=O)O)cc(OC)c1O
solubility (mole fraction)
Conditions	298.15 K	303.15 K	308.15 K	313.15 K	318.15 K
in DMSO	0.147	0.149	0.152	0.155	0.158
in ethylene glycol	0.00586	0.0066	0.0075	0.00848	0.0094

Cc1ccc(-c2cc(C(F)(F)F)nn2-c2ccc(S(N)(=O)=O)cc2)cc1
in water
Conditions	solubility (mole fraction)
293.2 K	7.36e-08
298.2 K	8.02e-08
303.2 K	9.16e-08
308.2 K	1.27e-07
313.2 K	1.44e-07

O=c1[nH]cc(I)c(=O)[nH]1
Conditions	solubility (mole fraction)
in water, 298.15 K	0.000373

C(=N\Nc1ccccc1)/c1ccco1
Conditions	solubility (mole fraction)
in water, 298.15 K	5.73e-07

O=C(C(=O)c1ccccc1)c1ccccc1
298.15 K
Conditions	solubility (mole fraction)
in 2,2,4-trimethylpentane	0.00589
in 4-methyl-2-pentanol	0.0128
in cyclohexane	0.0107
in dibutyl ether	0.0335
in isobutanol	0.00969
in isopentanol	0.0128
in isopropanol	0.00831
in methylcyclohexane	0.0113
in n-butanol	0.0131
in n-heptane	0.00656
in n-hexane	0.00575
in n-octane	0.00724
in n-octanol	0.0169
in n-pentanol	0.015
in n-propanol	0.0118
in sec-butanol	0.011

NC(CO)(CO)CO
in methanol
Conditions	solubility (mole fraction)
293.2 K	0.0076
298.2 K	0.0092
303.2 K	0.0106
308.2 K	0.0124
313.2 K	0.0158

NCCS(=O)(=O)O
in water
Conditions	solubility (mole fraction)
298.15 K	0.0143
303.15 K	0.0168
308.15 K	0.0199
313.15 K	0.0231
318.15 K	0.0269

CS(=O)(=O)c1ccc([C@@H](O)[C@@H](CF)NC(=O)C(Cl)Cl)cc1
in water
Conditions	solubility (mole fraction)
293.15 K	5.05e-05
296.85 K	6.15e-05
300.75 K	8.19e-05
304.55 K	8.52e-05
308.25 K	9.71e-05
312.15 K	0.000122
316.25 K	0.000147

O=c1ccc2ccccc2o1
in water
Conditions	solubility (mole fraction)
298.15 K	0.000235
303.15 K	0.000319
308.15 K	0.000388
313.15 K	0.000439

CC(C)C[C@H](CN)CC(=O)O
in water
Conditions	solubility (mole fraction)
283.15 K	0.00349
298.15 K	0.00373
308.15 K	0.00397
315.65 K	0.00447
323.15 K	0.00486
328.15 K	0.00531
338.15 K	0.00641

OCCCCCCO
in ethyl acetate
Conditions	solubility (mole fraction)
278.15 K	0.0148
283.15 K	0.0274
288.15 K	0.0387
293.15 K	0.0512
298.15 K	0.0834

O=C1C[C@@H](c2ccc(O)cc2)Oc2cc(O)cc(O)c21
298.15 K
Conditions	solubility (mole fraction)
in 1,4-dioxane	0.0669
in acetonitrile	0.0473
in water	1e-06

Nc1ccc(S(=O)(=O)Nc2ncccn2)cc1
Conditions	solubility (mole fraction)
in PEG-400, 298.15 K	0.0129
in PEG-400, 303.15 K	0.0132
in PEG-400, 308.15 K	0.0134
in PEG-400, 313.15 K	0.0136
in PEG-400, 318.15 K	0.0139

solubility (mole fraction)
Conditions	293.15 K	298.15 K	303.15 K	308.15 K	313.15 K
in n-propanol	3.88e-05	4.71e-05	5.87e-05	7.21e-05	9.13e-05
in propylene glycol	–	0.00047	–	–	–

Cc1ncc(CO)c(CO)c1O.Cl
in water
Conditions	solubility (mole fraction)
278.15 K	0.0102
283.15 K	0.012
288.15 K	0.014
293.15 K	0.0165
298.15 K	0.0187
303.15 K	0.0215
308.15 K	0.0245
313.15 K	0.0288
